Here are results for two molecules from patent US20220193189A1, “USE OF Dvl3-DEP PEPTIDE IN PREPARATION OF MEDICAMENT FOR REPAIRING SERTOLI CELL INJURY IN TESTES” (The Second Affiliated Hospital and Yuying Children's …, priority 2020, published 2022).

The test system of one data set is Sertoli cells. Nature of the data set: IF staining of tight junction-associated protein ZO-1 in Sertoli cells in vitro. In kind it is cell-based, SD rat. Conditions: PFOS 20 μM for 24 h, empty plasmid transfection group, day 6, vs blank control group. The source says: A total of 10 male SD rats at the age of 20 days were sacrificed and testes were collected. The testicular envelope and free seminiferous tubules were removed, and the remaining tissue was cut to 1 mm^3 with scissors and then digested successively with trypsin, protease inhibitor, collagenase, hyaluronidase, and other enzymes. Cell masses obtained from digestion were pipetted up and down with a glass Pasteur pipette and then subjected to density gradient centrifugation, and finally the volume of precipitated cells was measured and converted into the number of cells. Finally, the cells were cultivated in an F12/DMEM cell culture medium with human transferrin (5 μg/mL), bovine insulin (10 μg/mL), bacitracin (5 μg/mL), epithelial growth factor (EGF) (2.5 ng/mL), and the like. The cells were cultivated at 5% CO2 and 35° C. to obtain primary Sertoli cells. […]
In order to observe the tight junction morphology among Sertoli cells cultivated in vitro, IF staining (green fluorescent) was conducted using an antibody for the Sertoli cell tight junction-associated protein ZO-1 (ThermoFisher, 61-7300), and the nucleus was stained with DAPI (blue fluorescence) after the above staining. After mounting, a fluorescence microscope was used to observe and take pictures.

Data set [1] relates to polymerized/free Actin in Sertoli cells. Nature of the data set: G-Actin/F-actin polymerization test (ultracentrifugation, Western blot). It counts as cell-based, SD rat. Conditions: after PFOS treatment. The source says:
(§1) A total of 10 male SD rats at the age of 20 days were sacrificed and testes were collected. The testicular envelope and free seminiferous tubules were removed, and the remaining tissue was cut to 1 mm^3 with scissors and then digested successively with trypsin, protease inhibitor, collagenase, hyaluronidase, and other enzymes. Cell masses obtained from digestion were pipetted up and down with a glass Pasteur pipette and then subjected to density gradient centrifugation, and finally the volume of precipitated cells was measured and converted into the number of cells. Finally, the cells were cultivated in an F12/DMEM cell culture medium with human transferrin (5 μg/mL), bovine insulin (10 μg/mL), bacitracin (5 μg/mL), epithelial growth factor (EGF) (2.5 ng/mL), and the like. The cells were cultivated at 5% CO2 and 35° C. to obtain primary Sertoli cells.
Isolation and cultivation of cells were conducted according to the method in Example 2, and obtained cells were inoculated in a prepared 6-well plate. Cells in each group were collected immediately after the experiment ended. Related Actin and Tubulin polymerization tests were conducted on cells in the DEP peptide overexpression group and cells in the empty plasmid transfection group using G-Actin/F-actin polymerization detection kit (G-Actin/F-actin In Vivo Assay Biochem Kit, BK037, Cytoskeleton, Inc) and Microtubule/Tubulin polymerization detection kit (Microtubule/Tubulin In Vivo Assay Biochem Kit, BK038, Cytoskeleton, Inc). Related detection methods can refer to product descriptions. The main purpose of these tests is to separate polymerized cytoskeleton proteins (F-actin and Microtubule) and free monomeric cytoskeleton proteins (G-actin and Tubulin) in a cell lysate by ultracentrifugation. Then the polymerized cytoskeleton protein (a precipitate obtained from the ultracentrifugation) and the monomeric cytoskeleton protein (a supernatant obtained from the ultracentrifugation) in the cell lysate system were detected separately by Western blot. […]
A general note: Immunoblotting shows a protein as a band on a membrane.

The subject of data set [2] is polymerized/free Tubulin in Sertoli cells. Kind of data set: Microtubule/Tubulin polymerization test (ultracentrifugation, Western blot). It counts as cell-based, SD rat. Particulars: after PFOS treatment.
Source text: as §1
Isolation and cultivation of cells were conducted according to the method in Example 2, and obtained cells were inoculated in a prepared 6-well plate. Cells in each group were collected immediately after the experiment ended. […] Then the polymerized cytoskeleton protein (a precipitate obtained from the ultracentrifugation) and the monomeric cytoskeleton protein (a supernatant obtained from the ultracentrifugation) in the cell lysate system were detected separately by Western blot. […]

For data set [3] the following is noted: cited from earlier work.
Setting [4] is: pCI-neo empty plasmid transfection group.

For `O=S(=O)(O)C(F)(F)C(F)(F)C(F)(F)C(F)(F)C(F)(F)C(F)(F)C(F)(F)C(F)(F)F` [PFOS, Perfluorooctane sulphonate], in the data set on Sertoli cells, the “cell-cell junction interface (ZO-1 IF staining)” value is “significantly damaged”. Moreover, the “F-actin level (precipitate of ultracentrifugation, Western blot)” value in data set [1] (setting [4]) is “low, which was almost comparable to that in the negative control group”. Besides, the “Microtubule level (precipitate of ultracentrifugation, Western blot)” value in data set [2] (setting [4]) was “low, which was almost comparable to that in the negative control group”. Further, the human metabolic half-life entry in data set [3] is reported as “more than 5 years”.

B1: DEP peptide: Dvl3-DEP peptide with amino acid sequence SEQ ID NO. 1, overexpressed in Sertoli cells (protein)
chain: PESGLEVRDRMWLKITIPNAFIGSDVVDWLYHNVEGFTDRREARKYASNLLKAGFIRHTVNKITFSEQCYYIFGD
modifications: amino acid sequence of Dvl3-DEP peptide
notes: 1, overexpressed in Sertoli cells
For the molecule B1, in data set [1] (DEP peptide overexpression group, positive control 0.1 uM phalloidin), the “F-actin level (precipitate of ultracentrifugation, Western blot)” value was “lower than that in the positive control group but significantly higher than that in the empty plasmid transfection group”. The “free G-actin content in the cell lysate supernatant (Western blot)” value in data set [1] (empty plasmid transfection group vs DEP peptide overexpression group) is on record as “empty plasmid transfection group was higher than that of the DEP peptide overexpression group”. Also, the “Microtubule level (precipitate of ultracentrifugation, Western blot)” value in data set [2] (DEP peptide overexpression group, positive control 20 uM paclitaxel) was “lower than that in the positive control group but significantly higher than that in the empty plasmid transfection group”.
